Assay results as given in PMC8704707 (Pharmaceuticals, 2021).
In brackets after ≈: the same amount, converted by molar mass. Several values for one entry are separate records, joined by “and”; a condition that tells them apart may be missing. Identical values can stand only once. Like-named read-outs stand apart in the source and are kept apart here.

Assays:
[1] = system: Acinetobacter baumannii ATCC 19606; test: Antibacterial microdilution broth method (EUCAST); type: cell-based
[2] = system: eight human pathogenic fungi; test: Antifungal microdilution broth method, whole panel; type: cell-based; conditions: not reported in Table 2, read-out: MIC, all fungal strains tested
[3] = system: Staphylococcus epidermidis ATCC 12228; test: Antibacterial microdilution broth method (EUCAST); type: cell-based
[4] = system: Klebsiella pneumoniae ATCC 10031; conditions: for MIC KP 24 h: 24 h incubation; for MIC KP 48 h: 48 h incubation
[5] = molecular target: BuChE from equine serum (EqBuChE) (Equus caballus, UniProt P81908); test: biochemical; conditions: read-out: IC50 BuChE
BuChE from equine serum (EqBuChE), sequence (P81908 whole entry): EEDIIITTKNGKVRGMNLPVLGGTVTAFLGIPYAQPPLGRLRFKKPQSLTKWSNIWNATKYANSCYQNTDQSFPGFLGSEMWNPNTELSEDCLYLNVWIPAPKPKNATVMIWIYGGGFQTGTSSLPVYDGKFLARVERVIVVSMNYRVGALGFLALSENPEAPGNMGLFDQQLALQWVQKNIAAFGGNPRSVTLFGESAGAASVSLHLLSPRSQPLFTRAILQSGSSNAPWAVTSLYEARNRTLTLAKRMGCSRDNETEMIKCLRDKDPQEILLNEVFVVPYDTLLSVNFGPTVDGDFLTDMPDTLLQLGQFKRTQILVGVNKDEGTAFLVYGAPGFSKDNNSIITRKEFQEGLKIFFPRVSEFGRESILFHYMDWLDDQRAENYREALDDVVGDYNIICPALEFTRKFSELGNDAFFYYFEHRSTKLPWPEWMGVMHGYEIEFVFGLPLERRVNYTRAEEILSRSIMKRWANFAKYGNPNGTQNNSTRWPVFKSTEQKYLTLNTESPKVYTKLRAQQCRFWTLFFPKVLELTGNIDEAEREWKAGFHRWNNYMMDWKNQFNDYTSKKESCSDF

[6] = system: Enterococcus faecalis ATCC 29212; test: Antibacterial microdilution broth method (EUCAST); type: cell-based
[7] = system: Pseudomonas aeruginosa ATCC 27853; test: Antibacterial microdilution broth method (EUCAST); type: cell-based
[8] = system: Staphylococcus aureus ATCC 29213; test: Antibacterial microdilution broth method (EUCAST); type: cell-based
[9] = system: methicillin-resistant Staphylococcus aureus ATCC 43300; test: Antibacterial microdilution broth method (EUCAST); type: cell-based; conditions: ATCC 43300 / MRSA
[10] = molecular target: AChE from electric eel (EeAChE) (Electrophorus electricus, UniProt O42275); test: biochemical; type: biochemical
AChE from electric eel (EeAChE), sequence (O42275 24-633): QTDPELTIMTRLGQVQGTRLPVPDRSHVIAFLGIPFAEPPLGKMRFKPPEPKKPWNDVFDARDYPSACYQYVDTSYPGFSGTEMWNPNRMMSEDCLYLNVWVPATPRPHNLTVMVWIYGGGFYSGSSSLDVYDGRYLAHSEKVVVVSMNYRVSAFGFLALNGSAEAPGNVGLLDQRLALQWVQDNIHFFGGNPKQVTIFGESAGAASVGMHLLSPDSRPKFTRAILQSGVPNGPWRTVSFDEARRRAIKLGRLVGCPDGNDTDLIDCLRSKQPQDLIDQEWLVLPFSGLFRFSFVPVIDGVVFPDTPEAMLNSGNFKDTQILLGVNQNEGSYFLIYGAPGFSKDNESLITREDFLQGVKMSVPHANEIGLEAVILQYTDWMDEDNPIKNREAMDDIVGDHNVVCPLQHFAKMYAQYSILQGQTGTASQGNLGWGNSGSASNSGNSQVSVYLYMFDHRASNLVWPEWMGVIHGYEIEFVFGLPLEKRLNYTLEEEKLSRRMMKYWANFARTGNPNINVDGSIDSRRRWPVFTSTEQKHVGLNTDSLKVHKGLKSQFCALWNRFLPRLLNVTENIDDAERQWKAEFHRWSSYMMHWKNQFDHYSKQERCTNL

[11] = system: Escherichia coli ATCC 25922; test: Antibacterial microdilution broth method (EUCAST); type: cell-based
[12] = system: Trichophyton interdigitale ATCC 9533; test: microbe, parasite or virus in culture; type: cell-based
[13] = system: Candida parapsilosis ATCC 22019; test: microbe, parasite or virus in culture; type: cell-based; conditions: Lodderomyces parapsilosis
[14] = system: Candida albicans ATCC 24443; test: microbe, parasite or virus in culture; type: cell-based
Candida krusei ATCC 6258 = test: microbe, parasite or virus in culture; type: cell-based; conditions: Pichia kudriavzevii
[15] = system: Candida tropicalis ATCC 750; test: microbe, parasite or virus in culture; type: cell-based
[16] = system: four Gram-positive and four Gram-negative bacterial strains; test: Antibacterial microdilution broth method, whole panel; type: cell-based; conditions: read-out: MIC, all bacterial strains tested
[17] = ATCC19606, 24 h, read-out: MIC ACI 24 h
[18] = ATCC19606, 48 h, read-out: MIC ACI 48 h
[19] = ATCC12228, 24 h, read-out: MIC SE 24 h
[20] = ATCC12228, 48 h, read-out: MIC SE 48 h
[21] = mean ± SD, n = three independent experiments, BTCh 40 µM
[22] = ATCC29212, 24 h, read-out: MIC EF 24 h
[23] = ATCC29212, 48 h, read-out: MIC EF 48 h
[24] = ATCC27853, 24 h, read-out: MIC PA 24 h
[25] = ATCC27853, 48 h, read-out: MIC PA 48 h
[26] = ATCC29213, 24 h, read-out: MIC SA 24 h
[27] = ATCC29213, 48 h, read-out: MIC SA 48 h
[28] = mean ± SD, n = three independent experiments, ATCh 40 µM, read-out: IC50 AChE
[29] = ATCC25922, 24 h, read-out: MIC EC 24 h
[30] = ATCC25922, 48 h, read-out: MIC EC 48 h

Procedure for HepG2 cells: Cytotoxicity of the tested compounds was measured using the standard hepatic cell line HepG2. The used CellTiter 96® assay is based on the reduction of tetrazolium dye (MTS) in living cells to formazan, which is then determined colorimetrically.

SMILES | MIC [1, 17] | MIC [1, 18] | MIC [3, 19] | MIC [3, 20] | MIC KP 24 h [4] | MIC KP 48 h [4] | IC50 [5, 21] | MIC [6, 22] | MIC [6, 23] | MIC [7, 24] | MIC [7, 25] | MIC [8, 26] | MIC [8, 27] | MIC ([9]; 24 h, read-out: MIC MRSA 24 h) | MIC ([9]; 48 h, read-out: MIC MRSA 48 h) | Selectivity AChE/BuChE [10] | IC50 [10, 28] | MIC [11, 29] | MIC [11, 30] | further results
NC(=S)N/N=C/c1cc(I)cc(I)c1O [Compound 2i, (E)-2-(2-Hydroxy-3,5-diiodobenzylidene)hydrazine-1-carbothioamide] | > 500 µM | > 500 µM | 250 µM (≈ 112 µg/mL) | 250 µM (≈ 112 µg/mL) | >500 µM | >500 µM | 86.24 ± 0.39 µM | 250 µM (≈ 112 µg/mL) | 250 µM (≈ 112 µg/mL) | > 500 µM | > 500 µM | 500 µM (≈ 224 µg/mL) | 500 µM (≈ 224 µg/mL) | 500 µM (≈ 224 µg/mL) | 500 µM (≈ 224 µg/mL) | 0.61 | 52.22 ± 0.4 µM | > 500 µM | > 500 µM | MIC [2]: ≥ 500 µM
NC(=O)N/N=C/c1cc(I)cc(I)c1O [Compound 2h, (E)-2-(2-Hydroxy-3,5-diiodobenzylidene)hydrazine-1-carboxamide] | > 500 µM | > 500 µM | 125 µM (≈ 53.9 µg/mL) | 125 µM (≈ 53.9 µg/mL) | >500 µM | >500 µM | 34.7 ± 0.35 µM | > 500 µM | > 500 µM | > 500 µM | > 500 µM | 250 µM (≈ 108 µg/mL) | 250 µM (≈ 108 µg/mL) | 500 µM (≈ 215 µg/mL) | 500 µM (≈ 215 µg/mL) | 0.88 | 30.7 ± 0.33 µM | > 500 µM | > 500 µM | MIC [2]: ≥ 500 µM
N=C(N)NN [aminoguanidine, hydrazinecarboximidamide, reference compound] |  |  |  |  |  |  |  |  |  |  |  |  |  |  |  | 0.23 |  |  |  | Cytotoxicity in HepG2 in words (HepG2 cells): no significant cytotoxicity; IC50 [5]: 327 ± 18 µM; IC50 ([10]; read-out: IC50 AChE): 75.14 ± 0.74 µM
NNC(N)=O [semicarbazide, reference compound] |  |  |  |  |  |  |  |  |  |  |  |  |  |  |  | 0.13 |  |  |  | Cytotoxicity in HepG2 in words (HepG2 cells): no significant cytotoxicity; IC50 [5]: 365 ± 16.8 µM; IC50 ([10]; read-out: IC50 AChE): 48.1 ± 0.84 µM
N=C(NN)NN [1,3-diaminoguanidine, reference compound] |  |  |  |  |  |  | 283 ± 8.94 µM |  |  |  |  |  |  |  |  | 0.15 |  |  |  | Cytotoxicity in HepG2 in words (HepG2 cells; range of tested concentrations up to 500 µM): no significant cytotoxicity; IC50 [10]: 41.71 ± 0.23 µM
[H]/N=C(\N)NN=Cc1cc(I)ccc1O [Compound 1i, (E)-2-(2-Hydroxy-5-iodobenzylidene)hydrazine-1-carboximidamide] | 500 µM (≈ 152 µg/mL) | 500 µM (≈ 152 µg/mL) | 250 µM (≈ 76 µg/mL) | 250 µM (≈ 76 µg/mL) | 250 µM (≈ 76 µg/mL) | 250 µM (≈ 76 µg/mL) | < 20 µM and 19.8 µM | 500 µM (≈ 152 µg/mL) | 500 µM (≈ 152 µg/mL) | 500 µM (≈ 152 µg/mL) | 500 µM (≈ 152 µg/mL) | 125 µM (≈ 38 µg/mL) | 125 µM (≈ 38 µg/mL) | 125 µM (≈ 38 µg/mL) | 125 µM (≈ 38 µg/mL) | 1.27 | 25 ± 0.5 µM | 250 µM (≈ 76 µg/mL) | 250 µM (≈ 76 µg/mL) | MIC ([12]; ATCC9533, 72 h, read-out: MIC TI 72 h): 62.5 µM (≈ 19 µg/mL); MIC ([12]; ATCC9533, 120 h, read-out: MIC TI 120 h): 125 µM (≈ 38 µg/mL); MIC ([13]; ATCC22019, 24 h, read-out: MIC CP 24 h): 250 µM (≈ 76 µg/mL); MIC ([13]; ATCC22019, 48 h, read-out: MIC CP 48 h): 250 µM (≈ 76 µg/mL); MIC ([14]; ATCC24443, 24 h, read-out: MIC CA 24 h): 500 µM (≈ 152 µg/mL); MIC ([14]; ATCC24443, 48 h, read-out: MIC CA 48 h): 500 µM (≈ 152 µg/mL); MIC (Candida krusei ATCC 6258; ATCC6258, 24 h, read-out: MIC CK 24 h): 250 µM (≈ 76 µg/mL); MIC (Candida krusei ATCC 6258; ATCC6258, 48 h, read-out: MIC CK 48 h): 250 µM (≈ 76 µg/mL); MIC ([15]; ATCC750, 24 h, read-out: MIC CT 24 h): 500 µM (≈ 152 µg/mL); MIC ([15]; ATCC750, 48 h, read-out: MIC CT 48 h): 500 µM (≈ 152 µg/mL)
[H]/N=C(\N)NN=Cc1cccc(Cl)c1O [Compound 1e, (E)-2-(3-Chloro-2-hydroxybenzylidene)hydrazine-1-carboximidamide] |  |  |  |  |  |  | < 20 µM and 5.57 µM |  |  |  |  |  |  |  |  |  | 46.2 ± 2.26 µM |  |  | MIC [16]: ≥ 500 µM
